Results taken from patent US5843958A, “Arylpyrazoles as leukotriene inhibitors” (Ortho Pharmaceutical Corporation, priority 1997, dated 1998).

Experiments:
5-lipoxygenase = molecular target: T1, 5-lipoxygenase (Rattus norvegicus, UniProt P12527); assay: inhibition of 5-HETE production in broken RBL-1 cells (isolated enzyme); format: biochemical; conditions: Table A, broken RBL-1 cell supernatant; for inhibition at 3 µM: read-out: Isolated Enzyme % Inhib.; for inhibition at 3 µM / Isolated Enzyme % Inhib.: 3 μM
T1 construct: The pellet was discarded and the supernatant was saved as the source of enzymes; endogenous in cells; host or cells: RBL-1 (rat basophilic leukemia) cells, homogenate supernatant
T1 sequence (P12527 1-673): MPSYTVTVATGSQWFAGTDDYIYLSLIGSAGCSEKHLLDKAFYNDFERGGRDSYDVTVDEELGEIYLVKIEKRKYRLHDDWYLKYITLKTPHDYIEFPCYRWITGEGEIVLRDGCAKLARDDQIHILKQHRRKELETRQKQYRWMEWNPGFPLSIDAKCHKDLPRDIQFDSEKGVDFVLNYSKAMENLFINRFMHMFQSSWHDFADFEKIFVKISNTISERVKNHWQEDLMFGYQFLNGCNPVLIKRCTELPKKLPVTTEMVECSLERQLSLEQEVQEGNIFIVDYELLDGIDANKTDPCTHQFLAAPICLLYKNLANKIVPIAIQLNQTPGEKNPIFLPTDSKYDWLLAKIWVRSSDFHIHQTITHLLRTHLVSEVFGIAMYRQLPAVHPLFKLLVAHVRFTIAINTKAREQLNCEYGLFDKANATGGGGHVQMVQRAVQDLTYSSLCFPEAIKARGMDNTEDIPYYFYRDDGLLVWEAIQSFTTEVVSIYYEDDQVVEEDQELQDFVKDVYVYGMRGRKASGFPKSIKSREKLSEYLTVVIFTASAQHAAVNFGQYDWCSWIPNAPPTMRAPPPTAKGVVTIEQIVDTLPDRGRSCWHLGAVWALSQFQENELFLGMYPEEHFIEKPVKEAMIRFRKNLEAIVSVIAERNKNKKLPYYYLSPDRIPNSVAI
Experimental: (§1) The compounds of the invention were evaluated for their ability to inhibit the production of the arachidonic acid product 5-HETE in broken and whole cell models. Since this is the first step of leukotriene biosynthesis, a reduction in the production of 5-HETE is directly attributable to inhibition of 5-lipoxygenase, where the standard concentration is 3.0 μM. If the IC50 of the whole cell assay is smaller than the IC50 of the broken cell model, it is an indication that the compounds are inhibiting the cooperation of FLAP and 5-lipoxygenase.
Rat basophilic leukemia cells (RBL-1; 5×10^7 viable cells/mL) were disrupted by homogenization on ice (four 20 sec bursts) with a Brinkman polytron. Complete cell breakage was verified microscopically. The homogenate was then centrifuged at 9,220×g for 48 minutes at 4° C. The pellet was discarded and the supernatant was saved as the source of enzymes. The supernatant was pre-incubated for five minutes at 37° C. in the presence of 2 mM of CaCl2 and compound or vehicle (1% DMSO). The conversion of AA into products by CO and LO was initiated by adding 10 μL (50 μCi) of 1-^14 C-AA to each tube and incubated at 37° C. for 20 minutes. The reaction was stopped by adjusting the pH of each sample to 3 to 3.5 with 2M formic acid. Samples were extracted with three volumes of chloroform to isolate the products of 5-LO formed during the reaction. Fractions were dried under nitrogen, then resuspended in 40 μL of chloroform and spotted onto silica gel HL plates. The plates were developed in A-9 solvent. The dried plates were analyzed using a Bioscan Imaging TLC scanner to determine the percentage of radiolabelled AA converted to 5-HETE (LO product) in each sample. The percentage of inhibition was calculated by:
[1-(5-HETE test)]/5-HETE control×100=% inhibition
The IC50 was determined using a curve fit in Cricket Graph (Computer Associated), which provided the equation of the regressed line used in the calculation.

5-LO = assay: inhibition of 5-LO (5-HETE production) in intact RBL-1 cells (whole cell); format: cell-based, Rat; conditions: Table A
Experimental: as §1
The ability to inhibit 5-LO and CO in intact RBL-1 cells was also evaluated. RBL-1 cells were maintained in culture in minimal essential medium (Bio*Whittaker, Walkersville, Md.), containing 12.5% fetal calf serum, 10 mg/mL streptomycin, 10 I.U./mL penicillin G, […] gentamycin and 2 mM L-glutamine (Bio*Whittaker, Walkersville, Md.). Cells were collected by centrifugation, washed once in HBSS, and resuspended at a concentration of 1×10^5 cells/mL. Cells were incubated in the presence of vehicle or drug then centrifuged at 800×g for 10 minutes at 4° C. The supernatant was removed by aspiration and the cells were resuspended in 0.5 mL of HBSS. The reaction was started by the addition of 20 μg/mL of calcium ionophore A 23187 (mixed calcium and magnesium salts, Calbiochem, La Jolla Calif.) and allowed to proceed for 15 minutes, then stopped by plunging the tubes into a slush ice bath. The conversion of AA to 5-LO products was initiated by the addition of 10 μL (50 uCi) of 1-^14 C-AA. Products were isolated by acidification and extraction, followed by thin layer chromatography analysis as described above. Radioactive areas corresponding to authentic 5-LO (5-HETE) and CO (PGD2) products were quantitated by the Bioscan 2000 Imaging System and the IC50 was calculated as above.

Structure (SMILES)	inhibition at 3 µM (5-lipoxygenase) [%]	IC50 (5-LO) [nM]	Isolated Enzyme % Inhib. (5-lipoxygenase) [%]	IC50 (5-lipoxygenase) [nM]
COC(=O)CCc1cc(-c2ccc(OCc3ccc4ccccc4n3)cc2)n(-c2ccccc2)n1 [Cpd 17]	19			
O=CCCc1cc(-c2ccc(Cl)cc2)n(-c2ccc(OCc3ccc4ccccc4n3)cc2)n1 [Cpd 8]	49	3200		
ON=CCCc1cc(-c2ccc(Cl)cc2)n(-c2ccc(OCc3ccc4ccccc4n3)cc2)n1 [Cpd 9, 5-(4-Chlorophenyl)-3-oximino 1-(4-(2-quinolyl)methoxy)phenyl)-pyrazol-3-yl]propanal.0.25 Hydrate]	44	550		
CC(C)COC(=O)CCc1cc(-c2ccc(Cl)cc2)n(-c2ccc(OCc3ccc4ccccc4n3)cc2)n1 [Cpd 10]	34	1500		
O=C(O)CCc1cc(-c2ccc(OCc3ccc4ccccc4n3)cc2)n(-c2ccc(Cl)cc2)n1 [Cpd 18]	0			
CN(O)C(=O)OCCc1cc(-c2ccc(Cl)cc2)n(-c2ccc(OCc3ccc4ccccc4n3)cc2)n1 [Cpd 5, 5-(4-Chlorophenyl)-3-[2-(N-hydroxy-N-methylcarbamoyloxy)]ethyl]-1-[4-(2-quinolyl)methoxyphenyl]pyrazole.0.05 Hydrate]	93	1100		
CCOC(=O)CCc1cc(-c2ccc(Cl)cc2)n(-c2ccc(OCc3ccc4ccccc4n3)cc2)n1 [Cpd 12]	19	7400		
CN(O)C(=O)CCc1cc(-c2ccc(Cl)cc2)n(-c2ccc(OCc3ccc4ccccc4n3)cc2)n1 [Cpd 7, 3-{5-(4-Chlorophenyl)-N-hydroxy-N-methyl-1-[4-(2-quinolyl)methoxyphenyl]pyrazol-3-yl}propanamide]		490	93	210
O=C(O)Cc1cc(-c2ccc(Cl)cc2)n(-c2ccc(OCc3ccc4ccccc4n3)cc2)n1 [Cpd 2, 2-[5-(4-Chlorophenyl)-1-(4-(2-quinolyl)methoxyphenyl)-pyrazol-3-yl]acetic acid]	15	390		
COc1ccc(-n2nc(CCC(=O)O)cc2-c2ccc(OCc3ccc4ccccc4n3)cc2)cc1 [Cpd 14]		2000	24	
O=C(O)CCc1cc(-c2ccc(OCc3ccc4ccccc4n3)cc2)n(-c2ccccc2)n1 [Cpd 19]	0			
CN(O)C(=O)CCc1cc(-c2ccc(OCc3ccc4ccccc4n3)cc2)n(-c2ccc(Cl)cc2)n1 [Cpd 21]	15			
OCCCc1cc(-c2ccc(Cl)cc2)n(-c2ccc(OCc3ccc4ccccc4n3)cc2)n1 [Cpd 20]	21	840		
CN(O)C(=O)CCc1cc(-c2ccc(Cl)cc2)n(-c2ccc(OCc3ccc4ccccc4n3)cc2)n1 [Cpd 22]	100	1000		
COc1ccc(-n2nc(CCC(=O)N(C)O)cc2-c2ccc(OCc3ccc4ccccc4n3)cc2)cc1 [Cpd 16]	87	540		
Cc1cc(-c2ccc(Cl)cc2)n(-c2ccc(OCc3ccc4ccccc4n3)cc2)n1 [Cpd 11]	32	6500		
OCCc1cc(-c2ccc(Cl)cc2)n(-c2ccc(OCc3ccc4ccccc4n3)cc2)n1 [Cpd 3]	31	1300		
O=C(O)CCc1cc(-c2ccc(Cl)cc2)n(-c2ccc(OCc3ccc4ccccc4n3)cc2)n1 [Cpd 15]	0	5200		
COc1ccc(-n2nc(CCC(=O)O)cc2-c2ccc(OCc3ccc4ccccc4n3)cc2)cc1 [Cpd 13]		3900	8	
ClCCc1cc(-c2ccc(Cl)cc2)n(-c2ccc(OCc3ccc4ccccc4n3)cc2)n1 [Cpd 4, 3-(2-Chloroethyl)-5-(4-chlorophenyl)-1-[4-(2-quinolyl)methoxyphenyl]pyrazole]	55	5300		
CCOC(=O)Cc1cc(-c2ccc(Cl)cc2)n(-c2ccc(OCc3ccc4ccccc4n3)cc2)n1 [Cpd 1]	29	13400		
